Source: patent US20220249511A1, “METHODS FOR THE TREATMENT OF KELOID, HYPERTROPHIC SCARS AND/OR HYPERPIGMENTATION DISORDERS” (INSERM (INSTITUT NATIONAL DE LA SANTÉ ET DE LA RECHERCHE …, priority 2019, published 2022)

Experiments:
[1] = test system: primary fibroblasts derived from pathological scars; assay: Proliferation of primary fibroblasts derived from pathological scars; format: cell-based, human; details: exposed 24 h, vs DMSO, FIG. 3B
Procedure: (§1) Paraffin-embedded kidney sections (4-um) were incubated with anti-P-AKT (Ser473) antibody (Cell Signaling Technology, ref# 4060), anti-P-S6RP antibody (Cell Signaling Technology, ref# 5364), anti-a-smooth muscle cell antibody (Sigma Aldrich, ref# A5228), and anti-KI67 antibody (Thermo Fisher Scientific, ref# RM-9106-51) Immunofluorescence studies were analyzed using a Zeiss LSM 700 confocal microscope.
(§2) Skin samples (hypertrophic, keloids and burn scars) were collected during surgical procedures. To generate dermal fibroblast cultures, skin samples were minced and incubated at room temperature in 0.05% trypsin-EDTA (ThermoFisher) solution for 30 min with gentle shaking. Cells were collected by centrifuging at 700 g for 10 min, resuspended in cell culture media containing 25% FBS, and plated onto 24 well plates to establish lines. Fibroblast cultures were grown and maintained in 1× MEM (Corning) supplemented with 25% FBS and penicillin/streptomycin (Corning) to a final concentration of 100 IU penicillin and 500 μg.mL-1 streptomycin.
(§3) Cells at similar population doubling were plated 1:4 from confluent cultures and allowed to grow until ˜80% confluent. Cells were then starved during 12 hours and exposed during 24 h to either BYL719 (0.1 or 1 μmol.L-1; MedChem Express), taselisib (0.1 or 2. μmol.L-1; MedChem Express) or miransertib (0.1 or […]) or equal volume of DMSO. We also performed ex vivo keloid scars culture. Keloids were exposed during 24h to either BYL719 (0.1 or 1 μmol.L-1; MedChem Express) or equal volume of DMSO.

AKT/mTOR pathway [2] = assay: Western blot of P-AKT and P-S6RP in primary fibroblasts derived from pathological scars; format: cell-based, human; details: starved 12 hours, exposed 24 h, vs DMSO, FIG. 3A
Procedure: as §2, §3
Cultures were rinsed with 1X PBS, treated for 10 min with 0.05% Trypsin, collected by centrifugation at 4° C., and pellets were flash frozen on dry ice. Protein lysates were collected by directly adding 1× RIPA buffer containing protease and phosphatase inhibitors. Each experiment was performed in duplicate and repeated at least three times
Western blots were performed as previously described^31. Briefly, protein extracts from the scars and primary culture of fibroblasts were resolved by SDS-PAGE before being transferred onto the appropriate membrane and incubated with anti-P-AKT (Ser473) antibody (Cell Signaling Technology, ref# 4060), anti-P-S6RP antibody (Cell Signaling Technology, ref# 5364) and anti-GAPDH (Merck Millipore, ref#374), followed by the appropriate peroxidase-conjugated secondary antibody. […]

Tgfβ mRNA [3] = assay: Tgfβ mRNA expression in primary fibroblasts derived from pathological scars; format: cell-based, human; details: exposed 24 h, vs DMSO, FIG. 3C
Procedure: as §2, §3
(§4) Total RNA was isolated from snap-frozen kidneys using the TRIzol reagent (Sigma) according to the manufacture's protocol. First-strand cDNA was synthesized using the MML-V reverse transcriptase (Promega, USA). Real-time PCR was performed using the iQ-SYBR Green supermix (BioRad) and the iQ5 Multicolor Real-Time PCR Detection System (BioRad) for mRNA detection. 18S rRNA was used as a house keeping gene.

nevi = assay: Cohort of PROS patients treated with oral BYL719: nevus color (visual scale); format: in vivo, human; details: arbitrary visual scale 5: dark color to 1: normal skin color, FIG. 1
Procedure: (§5) The cohort is composed by 19 patients including 15 children (ranging from 4 to 50 years old). Children received 50 mg daily while adults received 250 mg daily. BYL719 was delivered orally every morning with breakfast. Patients were followed at regular intervals:
(§6) weekly for 8 weeks, every two weeks for 1 month and then monthly. All patients underwent clinical examination, and areas of overgrowth, nevi as well as visible scars were photographed before and after BYL719 introduction. All pictures were taken by a single operator, always using the same camera (12-megapixel camera), in the same room and at the same distance. […] Length and surface of the scars were measured using Image J.
As shown on FIG. 1, inventors have observed that during treatment with oral BYL719, the length, the area and the thickness of the different scars were dramatically reducing without additional treatment. […] Nevus color was evaluated using an arbitrary visual scale ranging from (5: dark color to 1: normal skin color).

[4] = test system: hypertrophic and keloids scars; assay: Cohort of PROS patients treated with oral BYL719: hypertrophic and keloid scars; format: in vivo, human; details: daily dose of 250 mg in adults or 50 mg in children, FIG. 1
Procedure: as §5, §6

burn scar = assay: PROS patient treated with oral BYL719: burn scar; format: in vivo, human; details: one PROS patient with a large burn scar on the left thigh, FIG. 2
Procedure: as §5, §6

keloids = assay: Proliferation rate in ex vivo keloid scars culture; format: cell-based, human; details: ex vivo keloids exposed 24h to 0.1 or 1 μmol.L-1, vs DMSO; FIG. 3E
Procedure: as §1, §3

Tgfβ mRNA [5] = assay: Tgfβ mRNA expression in ex vivo keloid scars culture; format: cell-based, human; details: ex vivo keloids exposed 24h to 0.1 or 1 μmol.L-1, vs DMSO; FIG. 3F
Procedure: as §3, §4

AKT/mTOR pathway [6] = assay: Western blot of ex vivo keloid scars culture; format: cell-based, human; details: ex vivo keloids exposed 24h to 0.1 or 1 μmol.L-1, vs DMSO; FIG. 3D
Procedure: as §3
Western blots were performed as previously described^31. Briefly, protein extracts from the scars and primary culture of fibroblasts were resolved by SDS-PAGE before being transferred onto the appropriate membrane and incubated with anti-P-AKT (Ser473) antibody (Cell Signaling Technology, ref# 4060), anti-P-S6RP antibody (Cell Signaling Technology, ref# 5364) and anti-GAPDH (Merck Millipore, ref#374), followed by the appropriate peroxidase-conjugated secondary antibody. Chemiluminescence was acquired using a Fusion FX7 camera (Vilbert Lourmat) and densitometry was performed using the Bio1D software (Certain Tech).

SMILES	proliferation [1]	AKT/mTOR pathway (P-AKT and P-S6RP in WB) (AKT/mTOR pathway [2])	mRNA expression of Tgfβ, a marker of fibrosis (Tgfβ mRNA [3])	nevus color (nevi)	length of the hypertrophic and keloids scars [4]	surface area of the hypertrophic and keloids scars [4]	thickness of the hypertrophic and keloids scars [4]	size of the burn scar (burn scar)	proliferation rate (keloids)	Tgfβ mRNA expression (Tgfβ mRNA [5])	AKT/mTOR pathway (Western blot) (AKT/mTOR pathway [6])
Cc1nc(-c2cn3c(n2)-c2ccc(-c4cnn(C(C)(C)C(N)=O)c4)cc2OCC3)n(C(C)C)n1 [taselisib, Taselisib]	reduced	efficiently block	reduced	–	–	–	–	–	–	–	–
Cc1nc(NC(=O)N2CCC[C@H]2C(N)=O)sc1-c1ccnc(C(C)(C)C(F)(F)F)c1 [BYL719, Alpelisib]	reduced	efficiently block	reduced	spontaneously decolorating	progressive improvement	progressive improvement	progressive improvement	reduction in size	reduce	reduce	inhibits
Nc1ncccc1-c1nc2ccc(-c3ccccc3)nc2n1-c1ccc(C2(N)CCC2)cc1 [miransertib, Miransertib]	reduced	efficiently block	reduced	–	–	–	–	–	–	–	–
